Data from ChEMBL document CHEMBL5634087, “Novel 5-aminopyrazoles endowed with anti-angiogenetic properties: Design, synthesis and biological evaluation” (Eur J Med Chem, 2023).
Activity calls are given as the source filed them. The rule behind the calls is not given here.

What was measured:
HFF [1] = experiment: Antiangiogenic activity in confluent HFF cells assessed as relative migration rate at 1 uM incubated for 48 hrs by Hoechst 33342 staining based wound healing assay relative to control; format: functional, Homo sapiens
HFF [2] = experiment: Antiangiogenic activity in confluent HFF cells assessed as relative migration rate at 1 uM incubated for 24 hrs by Hoechst 33342 staining based wound healing assay relative to control; format: functional, Homo sapiens
HUVEC [3] = experiment: Antiangiogenic activity in confluent VEGF stimulated HUVEC cells assessed as inhibition of cell migration at 20 uM incubated for 24 to 48 hrs by Hoechst 33342 staining based wound healing assay; format: functional; conditions: Homo sapiens, time 24-48 hrs
[4] = molecular target: RAC-alpha serine/threonine-protein kinase (Homo sapiens) (UniProt P31749); experiment: Inhibition of AKT phosphorylation in serum starved VEGF stimulated HUVEC cells at 20 uM preincubated for 10 mins followed by VEGF addition and measured after 20 mins by Western blotting analysis relative to control; format: cell-based; conditions: time 30.0 min
RAC-alpha serine/threonine-protein kinase (Homo sapiens), sequence (P31749 whole entry): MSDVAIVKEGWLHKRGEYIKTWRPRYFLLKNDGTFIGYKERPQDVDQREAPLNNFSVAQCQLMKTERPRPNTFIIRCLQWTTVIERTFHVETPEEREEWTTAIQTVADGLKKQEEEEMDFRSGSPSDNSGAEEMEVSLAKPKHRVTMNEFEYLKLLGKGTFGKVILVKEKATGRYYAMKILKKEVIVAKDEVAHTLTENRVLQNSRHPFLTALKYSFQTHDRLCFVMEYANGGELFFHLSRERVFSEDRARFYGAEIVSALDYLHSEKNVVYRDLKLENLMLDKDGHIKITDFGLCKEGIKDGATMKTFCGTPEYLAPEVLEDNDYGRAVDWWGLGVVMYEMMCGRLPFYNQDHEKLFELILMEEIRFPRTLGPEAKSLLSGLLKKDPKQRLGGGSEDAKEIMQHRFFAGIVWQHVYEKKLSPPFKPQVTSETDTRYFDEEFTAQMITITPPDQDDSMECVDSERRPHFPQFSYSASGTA

HFF [5] = experiment: Antiangiogenic activity in confluent HFF cells assessed as inhibition of cell migration at 20 uM incubated for 24 to 48 hrs by Hoechst 33342 staining based wound healing assay; format: functional; conditions: Homo sapiens, time 24-48 hrs
SK-MEL-28 = experiment: Antiproliferative activity against human SK-MEL-28 cells assessed as growth rate at 10 uM incubated for 48 hrs by MTT assay relative to control; format: functional; conditions: read-out: Activity
[6] = molecular target: RAC-alpha serine/threonine-protein kinase (Homo sapiens) (UniProt P31749); experiment: Inhibition of AKT phosphorylation in serum starved VEGF stimulated HUVEC cells at 20 uM preincubated for 10 mins followed by VEGF addition and measured after 20 mins by Western blotting analysis; format: cell-based; conditions: time 30.0 min
[7] = Cytotoxicity against human GM06114 cells assessed as growth rate at 10 uM incubated for 48 hrs by MTT assay relative to control; format: toxicity, cell-based; conditions: gm06114, 48 h
SK-BR-3 = experiment: Antiproliferative activity against human SK-BR-3 cells assessed as growth rate at 10 uM incubated for 48 hrs by MTT assay relative to control; format: functional; conditions: read-out: Activity
HeLa = experiment: Antiproliferative activity against human HeLa cells assessed as growth rate at 10 uM incubated for 48 hrs by MTT assay relative to control; format: functional; conditions: read-out: Activity
MCF7 = experiment: Antiproliferative activity against human MCF7 cells assessed as growth rate at 10 uM incubated for 48 hrs by MTT assay relative to control; format: functional; conditions: read-out: Activity
[8] = molecular target: RAC-alpha serine/threonine-protein kinase (Homo sapiens) (UniProt P31749); experiment: Inhibition of AKT phosphorylation in serum starved bFGF stimulated HFF cells at 20 uM preincubated for 10 mins followed by bFGF addition and measured after 20 mins by Western blotting analysis; format: cell-based; conditions: time 30.0 min
SK-OV-3 = experiment: Antiproliferative activity against human SK-OV-3 cells assessed as growth rate at 10 uM incubated for 48 hrs by MTT assay relative to control; format: functional; conditions: read-out: Activity
A549 = experiment: Antiproliferative activity against human A549 cells assessed as growth rate at 10 uM incubated for 48 hrs by MTT assay relative to control; format: functional; conditions: read-out: Activity
HepG2 = experiment: Antiproliferative activity against human HepG2 cells assessed as growth rate at 10 uM incubated for 48 hrs by MTT assay relative to control; format: functional; conditions: read-out: Activity
[9] = molecular target: Mitogen-activated protein kinase; ERK1/ERK2 (Homo sapiens) (UniProt P27361+P28482); experiment: Inhibition of ERK1/2 phosphorylation in serum starved bFGF stimulated HFF cells assessed as residual phosphorylated ERK1/2 level at 20 uM preincubated for 10 mins followed by bFGF addition and measured after 20 mins by Western blotting analysis relative to control; format: cell-based; conditions: time 30.0 min
Mitogen-activated protein kinase; ERK1/ERK2 (Homo sapiens), sequence (P27361 whole entry, looked up): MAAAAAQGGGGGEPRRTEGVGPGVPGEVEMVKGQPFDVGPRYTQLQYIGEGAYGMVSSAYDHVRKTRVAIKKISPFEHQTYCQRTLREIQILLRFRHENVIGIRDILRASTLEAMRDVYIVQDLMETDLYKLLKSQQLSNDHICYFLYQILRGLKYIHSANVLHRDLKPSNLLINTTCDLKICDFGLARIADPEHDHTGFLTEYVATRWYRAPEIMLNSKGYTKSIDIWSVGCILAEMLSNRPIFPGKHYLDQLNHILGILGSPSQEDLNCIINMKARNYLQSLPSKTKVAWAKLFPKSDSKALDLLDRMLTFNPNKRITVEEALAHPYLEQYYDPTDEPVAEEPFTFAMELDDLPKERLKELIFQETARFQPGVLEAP
Mitogen-activated protein kinase; ERK1/ERK2 (Homo sapiens), sequence (P28482 whole entry, looked up): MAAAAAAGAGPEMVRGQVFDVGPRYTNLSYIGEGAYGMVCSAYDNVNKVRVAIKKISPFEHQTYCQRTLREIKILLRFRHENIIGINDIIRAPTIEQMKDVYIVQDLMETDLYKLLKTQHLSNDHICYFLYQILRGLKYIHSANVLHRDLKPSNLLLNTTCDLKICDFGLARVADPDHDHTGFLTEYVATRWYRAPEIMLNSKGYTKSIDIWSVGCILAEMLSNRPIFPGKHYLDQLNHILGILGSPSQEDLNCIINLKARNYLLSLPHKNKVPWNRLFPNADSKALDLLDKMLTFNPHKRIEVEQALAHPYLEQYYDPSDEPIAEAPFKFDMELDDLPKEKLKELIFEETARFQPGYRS

MDA-MB-231 = experiment: Antiproliferative activity against human MDA-MB-231 cells assessed as growth rate at 10 uM incubated for 48 hrs by MTT assay relative to control; format: functional; conditions: read-out: Activity
HUVEC [10] = experiment: Antiangiogenic activity in confluent VEGF stimulated HUVEC cells assessed as relative cell migration rate at 20 uM incubated for 48 hrs by Hoechst 33342 staining based wound healing assay relative to control; format: functional, Homo sapiens
HUVEC [11] = experiment: Antiangiogenic activity in confluent VEGF stimulated HUVEC cells assessed as relative cell migration rate at 20 uM incubated for 24 hrs by Hoechst 33342 staining based wound healing assay relative to control; format: functional, Homo sapiens
HUVEC [12] = experiment: Antiangiogenic activity in confluent VEGF stimulated HUVEC cells assessed as inhibition of cell migration at 20 uM incubated for 48 hrs by Hoechst 33342 staining based wound healing assay; format: functional; conditions: Homo sapiens

| inhibition [4] | inhibition [6] | inhibition [8] | Activity [9] | SMILES | Activity (HFF [1]) | Activity (HFF [2]) | Activity (HUVEC [3]) | Activity (HFF [5]) | growth at 10 µM (SK-MEL-28) | Activity [7] | growth at 10 µM (SK-BR-3) | growth at 10 µM (HeLa) | growth at 10 µM (MCF7) | growth at 10 µM (SK-OV-3) | growth at 10 µM (A549) | growth at 10 µM (HepG2) | growth at 10 µM (MDA-MB-231) | Activity (HUVEC [10]) | Activity (HUVEC [11]) | Activity (HUVEC [12]) |
| --- | --- | --- | --- | --- | --- | --- | --- | --- | --- | --- | --- | --- | --- | --- | --- | --- | --- | --- | --- | --- |
| 24.1% | – | – | – | Cc1nc(Nc2ncc(C(=O)Nc3c(C)cccc3Cl)s2)cc(N2CCN(CCO)CC2)n1 [DASATINIB ANHYDROUS] | 27.32% | 27.31% | inactive | – | – | – | – | – | – | – | – | – | – | – | – | – |
| – | inactive | inactive | > 70% | CCCCC(O)Cn1nc(Nc2ccc(Cl)cc2)c(C(=O)OCC)c1N (stereo not given) | – | – | inactive | Active | 115% | 93.96% | 114% | 104% | 145% | 132% | 130% | 108% | 137% | – | – | – |
| – | – | – | > 70% | CCOC(=O)c1c(Nc2ccc(Cl)cc2)nn(CC(OC(=O)Nc2cccc(C(F)(F)F)c2)c2ccccc2)c1N (stereo not given) | – | – | – | inactive | 112% | 131.1% | 124% | 65.9% | 128% | 122% | 89.2% | 120% | 121% | >50% | >50% | – |
| – | – | Active | > 70% | CCCCC(O)Cn1nc(Nc2ccccc2Cl)c(C(=O)OCC)c1N (stereo not given) | – | – | – | Active | 109% | 92.72% | 103% | 104% | 140% | 125% | 138% | 102% | 126% | – | 47.74% | inactive |
